Experimental findings from US20250213649A1, “PEPTIDE HAVING ANTI-INFLAMMATORY AND ANTI-FIBROTIC ACTIVITIES AND USE THEREOF” (CAREGEN CO., LTD., priority 2022, published 2025) are described below.

One experiment concerns BALB/c mice. Description: LPS-induced acute lung inflammation model, cell counts in bronchoalveolar lavage fluid. As to conditions: BALB/c female mice, LPS 10 μg intranasal, peptide 0.5 mg, 1 mg intranasal 1 hour after LPS, 24 hours (FIG. 10a, 10b). Type of experiment: in vivo. As for the experimental part: BALB/c mice (Female/7W) were used in animal experiments, and an acute lung inflammation model was established by injection of LPS. As shown in [Table 5] below, 7-week-old BALB/c female mice were divided into 5 groups of 5 mice each, and then the experiment was carried out. On the 1st day, LPS (10 μg/50 μl/mouse) was administered intranasally to the G2 to G5 groups. 1 hour after LPS administration, the G3 and G4 groups were subjected to intranasal administration with the peptide of Production Example 1 (0.5 mg, 1 mg), and the G5 positive control group was subjected to intraperitoneal administration with Dexamethasone (100 μg). 24 hours after the administration of the active substance and the drug, the mice were sacrificed to obtain the bronchoalveolar lavage fluid and the lung tissue, which were used in the next analysis.
After anesthetizing the mouse, the treatment area was disinfected with 70% ethanol. […] The separated cells were resuspended in 0.5 ml of PBS, subsequently diluted with trypan blue solution at a 1:1 ratio, and then the total number of cells was counted using a hematocytometer. […] After staining, cells were observed and counted through a microscope, and then the number of immune cells with respect to the total number of cells was calculated to show the results as a graph.

Experiment [1] relates to A549 cells. Description: ELISA of inflammatory cytokine proteins induced by IL-1β, A549 cells. Type of experiment: cell-based, human. The settings on record: IL-1β 2 ng/ml, peptide 10, 50, 100, 500 μM, 72 hours, culture supernatant (FIG. 9a-9c). As to the method: A549 cells (human alveolar basal epithelial cells) were seeded at 2×10^5 cells/well in a 12-well plate and used in the experiment. After culturing for 1 day with a culture medium containing 10% FBS, the culture medium was replaced with a culture medium without containing FBS to induce starvation for 4 hours. Cells of a normal group (NON) without being treated with any substances, a group treated with IL-1β (2 ng/ml) (negative control group, NC), groups treated with IL-1β (2 ng/ml) and the peptide of Production Example 1 (10, 50, 100, 500 μM), and a group treated with IL-1β (2 ng/ml) and Dexamethasone (DEX) (10 μM) (positive control group) were treated with active substances and drugs respectively, and then cultured for 72 hours. After cell culture, the supernatant obtained by centrifuging the culture solution at 4° C. and 3,000 rpm for 10 minutes was subjected to ELISA analysis using an IL-6 Quantikine ELISA Kit (R&D systems), an IL-8 Quantikine ELISA Kit (R&D systems), and an IL-1β Quantikine ELISA Kit (R&D systems) according to the method of use in the kit instructions, and then the absorbance was measured at 450 nm using a microplate reader.

In a further experiment the test system is MRC-5 cells. Description: ELISA of LPS-induced IL-6 and IL-8, MRC-5 cells. Type of experiment: cell-based. As to conditions: 5 μg/ml LPS, peptide 10, 50, 100, 500 μM, 72 hours, culture supernatant (FIG. 5a, 5b). As to the method: MRC-5 cells (lung fibroblast cells) were seeded at 2×10^5 cells/well in a 12-well plate and used in the experiment. After culturing for 1 day with a culture medium containing 10% FBS, the culture medium was replaced with a culture medium without containing FBS to induce starvation for 4 hours. Cells of a normal group without being treated with any substances, a group treated with 5 μg/ml of LPS (Sigma Aldrich) (negative control group), groups treated with 5 μg/ml of LPS and the peptide of Production Example 1 (10, 50, 100, 500 μM), and a group treated with 5 μg/ml of LPS and 10μM of Dexamethasone (DEX) (positive control group) were treated with active substances and drugs respectively and then cultured for 72 hours. After cell culture, the supernatant obtained by centrifuging the culture solution at 4° C. and 3,000 rpm for 10 minutes was subjected to ELISA analysis using an IL-6 Quantikine ELISA Kit (R&D systems) and an IL-8 Quantikine ELISA kit (R&D systems) according to the method of use in the kit instructions, and then the absorbance was measured at 450 nm using a microplate reader.

The test system of experiment [2] is A549 cells. Nature of the experiment: Inhibition of inflammatory cytokine gene expression induced by IL-1β, RT-PCR, A549 cells. The format is cell-based, human. As to conditions: IL-1β 2 ng/ml, peptide 10, 50, 100, 500 μM, 3 hours, RT-PCR (FIG. 8). As to the method: A549 cells (human alveolar basal epithelial cells) were seeded at 3×10^5 cells/well in a 6-well plate and used in the experiment. After culturing for 1 day with a culture medium containing 10% FBS, the culture medium was replaced with a culture medium without containing FBS to induce starvation for 4 hours. A normal group without being treated with any substances, a group treated with IL-1β (2 ng/ml) (negative control group), groups treated with IL-1β (2 ng/ml) and the peptide of Production Example 1 (10, 50, 100, 500 μM), and a group treated with IL-1β (2 ng/ml) and 10 μM of Dexamethasone (DEX) (positive control group) were treated with the above-described active substances and drugs respectively, and then RNA was extracted after 3 hours to carry out RT-PCR. RNA was extracted from the A549 cells in each of the above groups using an easy-BLUE™ Total RNA extraction kit (Qiagen, Germany). The extracted RNA was converted into cDNA with RT-PCR premix (iNtRON Biotechnology, Seongnam, Korea). After preparing a reaction mixture with PCR premix (iNtRON Biotechnology, Seongnam, Korea) and primers for each gene, PCR was carried out using a PCR machine (Eppendorf, Germany). Next, the mRNA expression pattern was determined by agarose gel electrophoresis. The base sequences of the primers used in the experiment are as shown in [Table 2].

Consider “KYLLVHRPYYRR [peptide of Production Example 1]”, for which, in the experiment with BALB/c mice, the “number of macrophages in bronchoalveolar lavage fluid” value was “not increased or decreased” and the “number of neutrophils in bronchoalveolar lavage fluid” value is “significantly reduced the increased number of neutrophils in a concentration-dependent manner”. Further, in the experiment on A549 cells [1], the “expression level of IL-1β (ELISA)” value was “decreases the expression levels of IL-1B, IL-6, and IL-8 in a concentration-dependent manner”; the “expression level of IL-6 (ELISA)” value was “decreases the expression levels of IL-1B, IL-6, and IL-8 in a concentration-dependent manner”; the “expression level of IL-8 (ELISA)” value was “decreases the expression levels of IL-1B, IL-6, and IL-8 in a concentration-dependent manner”. Moreover, in the experiment with MRC-5 cells, the “expression level of IL-6 (ELISA)” value was “decreased the expression levels of IL-6 and IL-8 in a concentration-dependent manner”; the “expression level of IL-8 (ELISA)” value is “decreased the expression levels of IL-6 and IL-8 in a concentration-dependent manner”. In addition, in the experiment with A549 cells [2], the “gene expression level of COX-2” value is “decreases in a concentration-dependent manner”, the “gene expression level of IL-1β” value is “decreases in a concentration-dependent manner”, the “gene expression level of IL-6” value is given as “decreases in a concentration-dependent manner” and the “gene expression level of IL-8” value is “decreases in a concentration-dependent manner”. Also, the “gene expression level of TNF-α” value in the experiment with A549 cells [2] is reported as “decreases in a concentration-dependent manner”.
